We go through 32 molecules from article PMC12439760 (Bioorganic & medicinal chemistry, 2025).

One test addresses hCB1 receptor (Homo sapiens, UniProt P21554). The test is described as follows: hCB1 Gαq16-coupled calcium mobilization assay in CHO-K1 cells. It is filed as cell-based. The following applies: for EC50: hCB1 Ca EC50, CHO cells expressing hCB1 and Gαq16, calcium mobilization. In general terms: Calcium assays in cells follow changes in intracellular calcium, usually with a dye or a luminescent sensor.

The next test concerns the target hCB2 receptor (Homo sapiens, UniProt P34972). In words: hCB2 Gαq16-coupled calcium mobilization assay in CHO-K1 cells. It is filed as cell-based. The following applies: hCB2 Ca EC50, CHO cells expressing hCB2 and Gαq16, calcium mobilization.

Where “and” joins values, the source holds several entries; their conditions need not be identical. Equal entries are not always repeated. A value given as a limit tells only on which side of the number the result lay.

hCB1 receptor, sequence (P21554 whole entry): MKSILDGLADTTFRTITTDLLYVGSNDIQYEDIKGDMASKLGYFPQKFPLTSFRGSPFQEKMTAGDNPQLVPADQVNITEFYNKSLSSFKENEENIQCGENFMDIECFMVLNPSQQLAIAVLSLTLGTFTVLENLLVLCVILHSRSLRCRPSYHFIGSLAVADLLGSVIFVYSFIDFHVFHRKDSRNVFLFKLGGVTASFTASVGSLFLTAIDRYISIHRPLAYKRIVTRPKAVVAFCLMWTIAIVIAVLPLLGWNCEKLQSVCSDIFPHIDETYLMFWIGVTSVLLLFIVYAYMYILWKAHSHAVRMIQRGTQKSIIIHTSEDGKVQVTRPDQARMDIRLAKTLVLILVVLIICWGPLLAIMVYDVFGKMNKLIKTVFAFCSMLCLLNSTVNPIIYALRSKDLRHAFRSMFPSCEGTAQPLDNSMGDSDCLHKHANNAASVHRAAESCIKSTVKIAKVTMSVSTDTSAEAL
hCB2 receptor, sequence (P34972 whole entry): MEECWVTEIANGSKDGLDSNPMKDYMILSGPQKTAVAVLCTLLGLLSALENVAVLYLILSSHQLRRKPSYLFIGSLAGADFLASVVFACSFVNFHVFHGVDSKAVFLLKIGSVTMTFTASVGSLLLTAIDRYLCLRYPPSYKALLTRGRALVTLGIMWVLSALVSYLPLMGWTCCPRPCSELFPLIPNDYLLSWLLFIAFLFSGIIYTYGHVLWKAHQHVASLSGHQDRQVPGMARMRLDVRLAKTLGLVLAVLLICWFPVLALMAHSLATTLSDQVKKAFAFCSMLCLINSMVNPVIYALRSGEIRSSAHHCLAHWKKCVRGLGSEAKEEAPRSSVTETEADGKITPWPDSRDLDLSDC

Turning to `CC(C)(NC(=O)c1nn(CCC2CCCC2)c2ccccc12)c1cccc(C(N)=O)c1` [Compound 49, N-[2-(3-Carbamoylphenyl)propan-2-yl]-1-(2-cyclopentylethyl)-1H-indazole-3-carboxamide], the values for the EC50 on hCB1 receptor and at hCB2 receptor were 383 ± 163 nM and 189 ± 10 nM, respectively. The like results for `CCOCCn1nc(C(=O)NC(C)(C)c2cccc(C(N)=O)c2)c2ccccc21` [Compound 58, N-[2-(3-Carbamoylphenyl)propan-2-yl]-1-(2-ethoxyethyl)-1H-indazole-3-carboxamide] were, in that order, greater than 10000 nM and greater than 10000 nM.

Regarding `CC(C)[C@H](NC(=O)c1nn(Cc2ccc(F)cc2)c2ccccc12)C(=O)O` [Compound 5, (2S)-2-({1-[(4-Fluorophenyl)methyl]-1H-indazol-3-yl}formamido)-3-methylbutanoic Acid], the figures for the EC50 at hCB1 receptor and at hCB2 receptor were 5550 ± 435 nM and 516 ± 19 nM, respectively. Take `NC(=O)CN1CCC[C@H](NC(=O)c2nn(Cc3ccc(F)cc3)c3ccccc23)C1` [Compound 40, N-[(3S)-1-(Carbamoylmethyl)piperidin-3-yl]-1-[(4-fluorophenyl)methyl]-1H-indazole-3-carboxamide]: the EC50 at hCB1 receptor was 36 ± 14 nM; on hCB2 receptor, 22 ± 1 nM. Regarding `NC(=O)c1cccc(CNC(=O)c2nn(Cc3ccc(F)cc3)c3ccccc23)c1` [Compound 20, N-[(3-Carbamoylphenyl)methyl]-1-[(4-fluorophenyl)methyl]-1H-indazole-3-carboxamide], the EC50 on hCB1 receptor is 38 ± 14 nM; on hCB2 receptor, 170 nM and 172 nM. Moreover, the “hCB1 Ca Emax” value at hCB1 receptor (percentage of the maximum CP55,940 signal, CHO cells expressing hCB1 and Gαq16) was 104 ± 6%. On to `O=C(NC1CCCCC1)c1nn(Cc2ccc(F)cc2)c2ccccc12` [Compound 37, N-Cyclohexyl-1-[(4-fluorophenyl)methyl]-1H-indazole-3-carboxamide], for which the EC50 at hCB1 receptor was 23 ± 2 nM; at hCB2 receptor, 14 ± 3 nM. Consider `NC(=O)[C@@H]1CCCN1C(=O)C1(NC(=O)c2nn(Cc3ccc(F)cc3)c3ccccc23)CC1` [Compound 16, N-{1-[(2S)-2-Carbamoylpyrrolidine-1-carbonyl]cyclopropyl}-1-[(4-fluorophenyl)methyl]-1H-indazole-3-carboxamide], for which the EC50 at hCB1 receptor was found to be 168 ± 13 nM; on hCB2 receptor, 190 ± 88 nM. The like results for `NC(=O)N1CCC[C@H](NC(=O)c2nn(Cc3ccc(F)cc3)c3ccccc23)C1` [Compound 38, N-[(3S)-1-Carbamoylpiperidin-3-yl]-1-[(4-fluorophenyl)methyl]-1H-indazole-3-carboxamide] were, in that order, 541 ± 52 nM and 59 ± 1 nM. Take `NC(=O)C1(NC(=O)c2nn(Cc3ccc(F)cc3)c3ccccc23)CCCC1` [Compound 9, N-(1-Carbamoylcyclopentyl)-1-[(4-fluorophenyl)methyl]-1H-indazole-3-carboxamide]: the EC50 is 1240 ± 17 nM at hCB1 receptor and 63 ± 6 nM at hCB2 receptor. Consider `NC(=O)c1ccc(CNC(=O)c2nn(Cc3ccc(F)cc3)c3ccccc23)cc1` [Compound 21, N-[(4-Carbamoylphenyl)methyl]-1-[(4-fluorophenyl)methyl]-1H-indazole-3-carboxamide], for which the EC50 is greater than 10000 nM at hCB1 receptor and 1380 ± 149 nM on hCB2 receptor. For `NC(=O)CN1CCC[C@H](CNC(=O)c2nn(Cc3ccc(F)cc3)c3ccccc23)C1` [Compound 33, N-{[(3R)-1-(Carbamoylmethyl)piperidin-3-yl]methyl}-1-[(4-fluorophenyl)methyl]-1H-indazole-3-carboxamide], the EC50 on hCB1 receptor worked out at 239 ± 76 nM; on hCB2 receptor, 170 ± 24 nM. The like results for `O=C(NCC1CCCCC1)c1nn(Cc2ccc(F)cc2)c2ccccc12` [Compound 28, N-(Cyclohexylmethyl)-1-[(4-fluorophenyl)methyl]-1H-indazole-3-carboxamide] were, in that order, 17 ± 1 nM and 28 ± 8 nM. `CC(C)(NC(=O)c1nn(Cc2ccc(F)cc2)c2ccccc12)C(=O)N1CCC[C@@H]1C(N)=O` [Compound 15, N-{1-[(2R)-2-Carbamoylpyrrolidin-1-yl]-2-methyl-1-oxopropan-2-yl}-1-[(4-fluorophenyl)methyl]-1H-indazole-3-carboxamide]: the EC50 on hCB1 receptor and at hCB2 receptor was greater than 10000 nM throughout. As to `CNC(=O)C(C)(C)NC(=O)c1nn(Cc2ccc(F)cc2)c2ccccc12` [Compound 11, 2-({1-[(4-Fluorophenyl)methyl]-1H-indazol-3-yl}formamido)-N,2-dimethylpropanamide], the concentration for a half-maximal effect (EC50) worked out at 182 ± 6 nM at hCB1 receptor and 21 ± 3 nM at hCB2 receptor. Taken in the same sequence, the figures for `CC(C)(NC(=O)c1nn(Cc2ccc(F)cc2)c2ccccc12)C1CCN(C(N)=O)CC1` [Compound 36, N-[2-(1-Carbamoylpiperidin-4-yl)propan-2-yl]-1-[(4-fluorophenyl)methyl]-1H-indazole-3-carboxamide] were 2370 ± 452 nM and 132 ± 49 nM.

As to `O=C(NCc1ccc(F)cc1)c1nn(Cc2ccc(F)cc2)c2ccccc12` [Compound 18, N,1-Bis[(4-fluorophenyl)methyl]-1H-indazole-3-carboxamide], the EC50 was determined as 181 ± 20 nM at hCB1 receptor and 168 ± 24 nM on hCB2 receptor. The like results for `CC(C)(NC(=O)c1nn(Cc2ccc(Cl)cc2)c2ccccc12)c1cccc(C(N)=O)c1` [Compound 43, N-[2-(3-Carbamoylphenyl)propan-2-yl]-1-[(4-chlorophenyl)methyl]-1H-indazole-3-carboxamide] were, in that order, greater than 10000 nM and greater than 10000 nM. As to `NC(=O)N1CCC[C@@H](NC(=O)c2nn(Cc3ccc(F)cc3)c3ccccc23)C1` [Compound 39, N-[(3R)-1-Carbamoylpiperidin-3-yl]-1-[(4-fluorophenyl)methyl]-1H-indazole-3-carboxamide], the concentration for a half-maximal effect (EC50) at hCB2 receptor was determined as 207 ± 66 nM. Take `NC(=O)c1ccccc1CNC(=O)c1nn(Cc2ccc(F)cc2)c2ccccc12` [Compound 19, N-[(2-Carbamoylphenyl)methyl]-1-[(4-fluorophenyl)methyl]-1H-indazole-3-carboxamide]: the values for the EC50 at hCB1 receptor and at hCB2 receptor were 423 ± 190 nM and 52 ± 22 nM, respectively. As for `CC1(NC(=O)c2nn(Cc3ccc(F)cc3)c3ccccc23)CCCN(CC(N)=O)C1` (stereo not shown) [Compound 42, N-[1-(Carbamoylmethyl)-3-methylpiperidin-3-yl]-1-[(4-fluorophenyl)methyl]-1H-indazole-3-carboxamide], the EC50 at hCB1 receptor is 39 ± 1 nM; on hCB2 receptor, 41 ± 14 nM. The like results for `CC(C)(C#N)CCCn1nc(C(=O)NC(C)(C)c2cccc(C(N)=O)c2)c2ccccc21` [Compound 57, N-[2-(3-Carbamoylphenyl)propan-2-yl]-1-(4-cyano-4,4-dimethylbutyl)-1H-indazole-3-carboxamide] were, in that order, 742 ± 50 nM and greater than 10000 nM. In the case of `CC(=O)Nc1cccc(C(C)(C)NC(=O)c2nn(Cc3ccc(F)cc3)c3ccccc23)c1` [Compound 25, N-[2-(3-Acetamidophenyl)propan-2-yl]-1-[(4-fluorophenyl)methyl]-1H-indazole-3-carboxamide], at hCB2 receptor, the EC50 was 68 ± 1 nM. As for `C[C@H](NC(=O)c1nn(Cc2ccc(F)cc2)c2ccccc12)c1cccc(C(N)=O)c1` [Compound 22, N-[(1S)-1-(3-Carbamoylphenyl)ethyl]-1-[(4-fluorophenyl)methyl]-1H-indazole-3-carboxamide], the EC50 on hCB1 receptor came out at 26 ± 2 nM. With `NC(=O)CN1CCC[C@@H](CNC(=O)c2nn(Cc3ccc(F)cc3)c3ccccc23)C1` [Compound 32, N-{[(3S)-1-(Carbamoylmethyl)piperidin-3-yl]methyl}-1-[(4-fluorophenyl)methyl]-1H-indazole-3-carboxamide], the EC50 on hCB1 receptor amounted to 168 ± 23 nM; on hCB2 receptor, 150 ± 6 nM. Taken in the same sequence, the figures for `NC(=O)N1CCC[C@@H](CNC(=O)c2nn(Cc3ccc(F)cc3)c3ccccc23)C1` [Compound 29, N-{[(3S)-1-Carbamoylpiperidin-3-yl]methyl}-1-[(4-fluorophenyl)methyl]-1H-indazole-3-carboxamide] were 950 ± 108 nM and 178 ± 45 nM. Turning to `CC(C)(CN1CCC[C@H]1C(N)=O)NC(=O)c1nn(Cc2ccc(F)cc2)c2ccccc12` [Compound 17, N-{1-[(2S)-2-Carbamoylpyrrolidin-1-yl]-2-methylpropan-2-yl}-1-[(4-fluorophenyl)methyl]-1H-indazole-3-carboxamide], the EC50 at hCB1 receptor came out at 32 ± 15 nM; on hCB2 receptor, 101 ± 34 nM.

`CNC(=O)[C@@H](NC(=O)c1nn(Cc2ccc(F)cc2)c2ccccc12)C(C)C` [Compound 6, (2S)-2-({1-[(4-Fluorophenyl)methyl]-1H-indazol-3-yl}formamido)-N,3-dimethylbutanamide]: the 50% effective concentration (EC50) was found to be 12 ± 2 nM at hCB1 receptor and 30 ± 1 nM at hCB2 receptor. With `NC(=O)N1CCC[C@H](CNC(=O)c2nn(Cc3ccc(F)cc3)c3ccccc23)C1` [Compound 30, N-{[(3R)-1-Carbamoylpiperidin-3-yl]methyl}-1-[(4-fluorophenyl)methyl]-1H-indazole-3-carboxamide], the EC50 on hCB1 receptor was determined as 671 ± 161 nM. As for `NC(=O)[C@H](Cc1ccccc1)NC(=O)c1nn(Cc2ccc(F)cc2)c2ccccc12` [Compound 8, (2S)-2-({1-[(4-Fluorophenyl)methyl]-1H-indazol-3-yl}formamido)-3-phenylpropanamide], the EC50 at hCB1 receptor is 337 ± 33 nM; at hCB2 receptor, 59 ± 7 nM. As for `CC(C)(NC(=O)c1nn(Cc2ccc(F)cc2)c2ccccc12)c1cccc(NC(N)=O)c1` [Compound 26, N-{2-[3-(Carbamoylamino)phenyl]propan-2-yl}-1-[(4-fluorophenyl)methyl]-1H-indazole-3-carboxamide], on hCB1 receptor, the EC50 was found to be 590 ± 152 nM. As for `C[C@@H](NC(=O)c1nn(Cc2ccc(F)cc2)c2ccccc12)c1cccc(C(N)=O)c1` [Compound 23, N-[(1R)-1-(3-Carbamoylphenyl)ethyl]-1-[(4-fluorophenyl)methyl]-1H-indazole-3-carboxamide], on hCB1 receptor, the EC50 came to 433 ± 84 nM. Same read-out and setting: with `CC(c1ccc(F)cc1)n1nc(C(=O)NC(C)(C)c2cccc(C(N)=O)c2)c2ccccc21` (stereo not shown) [Compound 47, N-[2-(3-Carbamoylphenyl)propan-2-yl]-1-[1-(4-fluorophenyl)ethyl]-1H-indazole-3-carboxamide] the figure was 243 ± 37 nM.

A word on the EC50: it is the concentration that produces a half-maximal response.
